Measured values from ChEMBL document CHEMBL5725824, “Aminochromane, aminothiochromane and amino-1,2,3,4-tetrahydroquinoline derivatives, pharmaceutical compositions containing them, and their use in therapy” (2017).

Molecular target: Sodium- and chloride-dependent glycine transporter 1 (Homo sapiens) (UniProt P48067)
Assay: Radioligand Binding Assay: 1. [3H]-Glycine uptake into recombinant CHO cells expressing human GlyT1: Human GlyT1c expressing recombinant hGlyT1c_5_CHO cells were plated at 20,000 cells per well in 96 well Cytostar-T scintillation microplates (Amersham Biosciences) and cultured to sub-confluency for 24 h. For glycine uptake assays the culture medium was aspirated and the cells were washed once …

Sodium- and chloride-dependent glycine transporter 1 (Homo sapiens), sequence (P48067 whole entry, looked up): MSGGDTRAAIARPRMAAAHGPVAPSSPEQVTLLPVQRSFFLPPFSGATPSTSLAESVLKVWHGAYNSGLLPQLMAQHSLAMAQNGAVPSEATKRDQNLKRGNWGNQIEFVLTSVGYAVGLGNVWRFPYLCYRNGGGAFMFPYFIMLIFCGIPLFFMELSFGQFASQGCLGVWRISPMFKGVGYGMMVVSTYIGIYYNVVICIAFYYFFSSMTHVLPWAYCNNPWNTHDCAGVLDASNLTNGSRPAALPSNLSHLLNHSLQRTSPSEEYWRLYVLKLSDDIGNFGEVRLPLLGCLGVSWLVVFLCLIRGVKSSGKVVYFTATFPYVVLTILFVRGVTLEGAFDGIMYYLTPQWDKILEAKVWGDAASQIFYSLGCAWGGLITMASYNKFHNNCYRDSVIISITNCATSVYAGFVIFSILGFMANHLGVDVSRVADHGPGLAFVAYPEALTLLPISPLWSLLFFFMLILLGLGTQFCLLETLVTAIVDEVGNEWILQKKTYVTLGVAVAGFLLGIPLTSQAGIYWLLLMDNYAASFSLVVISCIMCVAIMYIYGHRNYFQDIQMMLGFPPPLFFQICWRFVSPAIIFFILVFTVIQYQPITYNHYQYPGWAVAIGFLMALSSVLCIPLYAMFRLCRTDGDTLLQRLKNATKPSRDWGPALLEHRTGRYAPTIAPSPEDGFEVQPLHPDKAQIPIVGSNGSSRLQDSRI

For CNC1COc2ccc(N3CC(NS(=O)(=O)CC4CC4)C3)cc2C1Cc1ccccc1 (cis isomer), the Ki was < 10 nM.
